Source: PMC6832352, “Synthesis and Glycosidase Inhibition of Broussonetine M and Its Analogues” (Molecules, 2019)

Legend:
Assay type in all cases: biochemical
α-L-Fucosidase = biological target: T1, α-L-Fucosidase (Bos taurus, UniProt Q2KIM0); test: glycosidase inhibition assay, bovine kidney α-L-fucosidase
T1 construct: purchased Sigma-Aldrich Chemical Co; host or cells: bovine kidney
T1 sequence (Q2KIM0 23-468): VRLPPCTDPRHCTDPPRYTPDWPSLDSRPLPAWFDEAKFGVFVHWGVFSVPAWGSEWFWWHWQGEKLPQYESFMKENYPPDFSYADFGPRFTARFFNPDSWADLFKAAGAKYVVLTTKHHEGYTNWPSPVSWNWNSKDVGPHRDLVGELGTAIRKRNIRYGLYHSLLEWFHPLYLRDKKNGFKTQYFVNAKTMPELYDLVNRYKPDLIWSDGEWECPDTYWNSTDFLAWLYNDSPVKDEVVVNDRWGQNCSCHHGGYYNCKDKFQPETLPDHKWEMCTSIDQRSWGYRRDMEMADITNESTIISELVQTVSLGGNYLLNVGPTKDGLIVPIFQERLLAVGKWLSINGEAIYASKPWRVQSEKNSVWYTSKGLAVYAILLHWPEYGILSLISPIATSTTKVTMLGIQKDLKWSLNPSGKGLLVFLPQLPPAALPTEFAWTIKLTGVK
Description: (§1) With rat intestinal maltase as an exception, other enzymes were purchased from Sigma-Aldrich Chemical Co. (St. Louis, Mo. USA). Brush border membranes prepared from rat small intestine according to the method of Kessler et al. were assayed at pH 6.8 for rat intestinal maltase using maltose. The released D-glucose was determined colorimetrically using the Glucose CII-test Wako (Wako Pure Chemical Ind.; Osaka, Japan). Other glycosidase activities were determined using an appropriate p-nitrophenyl glycoside as substrate in a buffer solution at the optimal pH value of each enzyme. The reaction was stopped by adding 400 mM Na2CO3. The released p-nitrophenol was measured spectrometrically at 400 nm.

β-Glucosidase = test: glycosidase inhibition assay, almond β-glucosidase; details: for inhibition %: at 100 μM
Description: as §1

β-Mannosidase = test: glycosidase inhibition assay, snail β-mannosidase; details: for inhibition %: at 100 μM
Description: as §1

α-Galactosidase = biological target: T2, α-Galactosidase (Coffea arabica, UniProt Q42656); test: glycosidase inhibition assay, coffee beans α-galactosidase; details: for IC50: α-Galactosidase, Coffee beans
T2 construct: purchased Sigma-Aldrich Chemical Co
T2 sequence (Q42656 16-378): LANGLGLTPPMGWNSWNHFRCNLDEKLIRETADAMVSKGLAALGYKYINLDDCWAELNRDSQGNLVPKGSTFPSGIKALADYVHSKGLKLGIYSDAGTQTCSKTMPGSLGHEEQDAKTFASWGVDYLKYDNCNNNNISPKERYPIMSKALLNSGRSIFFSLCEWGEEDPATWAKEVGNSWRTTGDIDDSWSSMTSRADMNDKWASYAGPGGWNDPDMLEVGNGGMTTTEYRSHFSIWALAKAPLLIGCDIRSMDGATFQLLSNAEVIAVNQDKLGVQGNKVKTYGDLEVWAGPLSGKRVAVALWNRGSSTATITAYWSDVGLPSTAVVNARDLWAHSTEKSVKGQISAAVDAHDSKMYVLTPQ
Description: as §1

α-Glucosidase = biological target: T3, α-Glucosidase (Oryza sativa subsp. japonica, UniProt Q653V7); test: glycosidase inhibition assay, rice α-glucosidase; details: for inhibition at 100 µM: α-Glucosidase, Rice
T3 construct: purchased Sigma-Aldrich Chemical Co
T3 sequence (Q653V7 34-885): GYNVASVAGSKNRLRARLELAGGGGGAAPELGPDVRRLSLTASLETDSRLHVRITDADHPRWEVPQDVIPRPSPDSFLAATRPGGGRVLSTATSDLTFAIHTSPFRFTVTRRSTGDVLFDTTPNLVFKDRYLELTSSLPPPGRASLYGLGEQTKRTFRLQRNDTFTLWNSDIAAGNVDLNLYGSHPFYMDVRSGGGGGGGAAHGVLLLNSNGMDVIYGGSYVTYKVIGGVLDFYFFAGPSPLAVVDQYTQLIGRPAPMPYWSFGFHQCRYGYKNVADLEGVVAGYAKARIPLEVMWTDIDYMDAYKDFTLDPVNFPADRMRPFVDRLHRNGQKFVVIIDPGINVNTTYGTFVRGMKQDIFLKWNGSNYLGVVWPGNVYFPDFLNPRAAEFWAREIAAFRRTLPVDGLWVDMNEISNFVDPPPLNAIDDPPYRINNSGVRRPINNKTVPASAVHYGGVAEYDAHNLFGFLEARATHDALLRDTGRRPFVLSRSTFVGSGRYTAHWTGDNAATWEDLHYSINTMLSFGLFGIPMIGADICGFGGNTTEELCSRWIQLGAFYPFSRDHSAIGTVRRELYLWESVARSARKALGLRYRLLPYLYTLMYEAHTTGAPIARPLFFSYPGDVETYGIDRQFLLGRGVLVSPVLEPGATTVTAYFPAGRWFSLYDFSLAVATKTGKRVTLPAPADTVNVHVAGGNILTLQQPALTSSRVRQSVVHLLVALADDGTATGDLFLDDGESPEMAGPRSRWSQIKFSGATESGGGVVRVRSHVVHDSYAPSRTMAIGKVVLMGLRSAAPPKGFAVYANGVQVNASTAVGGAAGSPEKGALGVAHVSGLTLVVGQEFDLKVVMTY
Description: as §1

α-Mannosidase = biological target: T4, α-Mannosidase (Canavalia ensiformis, UniProt C0HJB3); test: glycosidase inhibition assay, jack bean α-mannosidase
T4 construct: purchased Sigma-Aldrich Chemical Co
T4 sequence (C0HJB3 1-981): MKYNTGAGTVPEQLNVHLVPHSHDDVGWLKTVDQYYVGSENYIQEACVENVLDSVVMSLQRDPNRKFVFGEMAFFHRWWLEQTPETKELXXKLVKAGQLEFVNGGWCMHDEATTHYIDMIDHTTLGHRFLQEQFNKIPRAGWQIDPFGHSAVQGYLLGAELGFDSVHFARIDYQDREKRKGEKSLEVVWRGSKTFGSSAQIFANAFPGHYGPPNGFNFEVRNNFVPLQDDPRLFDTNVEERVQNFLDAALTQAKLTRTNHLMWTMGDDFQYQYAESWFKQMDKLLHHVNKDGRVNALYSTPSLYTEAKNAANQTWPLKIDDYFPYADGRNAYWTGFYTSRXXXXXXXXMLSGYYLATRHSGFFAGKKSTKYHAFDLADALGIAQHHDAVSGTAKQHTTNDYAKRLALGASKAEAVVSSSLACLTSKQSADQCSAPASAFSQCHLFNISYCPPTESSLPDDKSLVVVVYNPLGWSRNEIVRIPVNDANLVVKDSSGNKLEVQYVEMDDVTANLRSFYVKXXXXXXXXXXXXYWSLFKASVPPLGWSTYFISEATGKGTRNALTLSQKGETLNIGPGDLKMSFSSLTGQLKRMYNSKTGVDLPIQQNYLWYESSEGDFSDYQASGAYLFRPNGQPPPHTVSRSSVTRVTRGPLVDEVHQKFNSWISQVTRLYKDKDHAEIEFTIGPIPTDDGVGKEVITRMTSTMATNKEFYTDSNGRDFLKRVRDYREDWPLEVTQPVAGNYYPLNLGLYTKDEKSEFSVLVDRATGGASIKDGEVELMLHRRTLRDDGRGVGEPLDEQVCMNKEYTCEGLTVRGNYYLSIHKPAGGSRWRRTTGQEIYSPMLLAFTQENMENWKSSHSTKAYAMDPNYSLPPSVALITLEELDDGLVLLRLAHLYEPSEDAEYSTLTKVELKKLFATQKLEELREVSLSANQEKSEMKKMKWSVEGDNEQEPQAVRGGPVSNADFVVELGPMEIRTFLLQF
Description: as §1

β-Glucuronidase = biological target: T5, β-Glucuronidase (Escherichia coli, UniProt P05804); test: glycosidase inhibition assay, E. coli β-glucuronidase
T5 construct: purchased Sigma-Aldrich Chemical Co
T5 sequence (P05804 whole entry): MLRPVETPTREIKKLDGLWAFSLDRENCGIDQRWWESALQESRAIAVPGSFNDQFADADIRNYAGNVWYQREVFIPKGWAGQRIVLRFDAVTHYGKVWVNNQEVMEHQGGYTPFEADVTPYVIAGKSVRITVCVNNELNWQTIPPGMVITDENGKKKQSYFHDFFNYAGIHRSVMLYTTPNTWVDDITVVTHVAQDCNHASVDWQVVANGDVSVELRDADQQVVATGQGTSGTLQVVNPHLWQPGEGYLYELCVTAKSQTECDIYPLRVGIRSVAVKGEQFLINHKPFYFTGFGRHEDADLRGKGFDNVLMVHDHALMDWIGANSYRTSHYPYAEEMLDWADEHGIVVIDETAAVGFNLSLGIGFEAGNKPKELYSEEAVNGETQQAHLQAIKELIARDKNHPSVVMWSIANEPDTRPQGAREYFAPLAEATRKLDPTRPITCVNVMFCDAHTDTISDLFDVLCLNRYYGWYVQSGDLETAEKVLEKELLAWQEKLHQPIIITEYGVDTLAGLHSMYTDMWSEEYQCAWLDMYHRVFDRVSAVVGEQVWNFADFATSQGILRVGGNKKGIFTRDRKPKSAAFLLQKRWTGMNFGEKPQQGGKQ
Description: as §1

β-Galactosidase = test: glycosidase inhibition assay, bovine liver β-galactosidase
Description: as §1

Rat intestinal maltase = test: rat intestinal maltase inhibition (brush border membranes, maltose); details: for inhibition %: at 100 μM
Description: as §1

SMILES | IC50 (α-L-Fucosidase) [µM] | inhibition at 100 µM (α-L-Fucosidase) [%] | IC50 (β-Glucosidase) [µM] | inhibition % (β-Glucosidase) [%] | IC50 (β-Mannosidase) [µM] | inhibition % (β-Mannosidase) [%] | inhibition at 100 µM (α-Galactosidase) [%] | IC50 (α-Galactosidase) [µM] | IC50 (α-Glucosidase) [µM] | IC50 (α-Mannosidase) [µM] | inhibition at 100 µM (α-Mannosidase) [%] | IC50 (β-Glucuronidase) [µM] | inhibition at 100 µM (β-Glucuronidase) [%] | IC50 (β-Galactosidase) [µM] | inhibition at 100 µM (α-Glucosidase) [%] | IC50 (Rat intestinal maltase) [µM] | inhibition % (Rat intestinal maltase) [%]
OCCC[C@@H](O)CCCCCCCCC[C@@H]1N[C@@H](CO)[C@H](O)[C@H]1O [ent-10’-epi-3] | > 100 | 6.1 | > 100 | 8.0 | > 100 | 2.0 | 12.2 | > 100 | 1.3 | > 100 | 1.8 | > 100 | 36.2 | 9 |  |  | 
OCCC[C@@H](O)CCCCCCCCC[C@H]1N[C@@H](CO)[C@@H](O)[C@@H]1O [2-epi-3, (2S,3R,4R,5R)-2-hydroxymethyl-3,4-dihydroxyl-5-((10R)-10,13-(dihydroxyl)dec-1-yl) pyrrolidine] | > 100 | 4.3 | > 100 | 8.6 | > 100 | 0 | 0 | > 100 | > 100 | > 100 | 0 | 73 |  | 7.4 | 5.6 | > 100 | 16.8
OCCC[C@H](O)CCCCCCCCC[C@H]1N[C@H](CO)[C@@H](O)[C@@H]1O [10’-epi-3, (2R,3R,4R,5R)-2-hydroxymethyl-3,4-dihydroxyl-5-((10S)-10,13-(dihydroxyl)dec-1-yl) pyrrolidine] | > 100 | 0 | > 100 | 29.1 | > 100 | 0 | 0 | > 100 | > 100 | > 100 | 0 | 20 |  | 0.2 | 0 | > 100 | 26.4
OCCC[C@H](O)CCCCCCCCC[C@@H]1N[C@@H](CO)[C@H](O)[C@H]1O [ent-3, (2S,3S,4S,5S)-2-hydroxymethyl-3,4-dihydroxyl-5-((10S)-10,13-(dihydroxyl)dec-1-yl) pyrrolidine] | > 100 | 0 | > 100 | 9.6 | > 100 | 0 | 0.3 | > 100 | 1.2 | > 100 | 2.2 | > 100 | 44.3 | 50 |  | 0.29 | 
OCCCC(O)CCCCCCCCCC1NC(CO)C(O)C1O [2,10-di-epi-3, (2S,3R,4R,5R)-2-hydroxymethyl-3,4-dihydroxyl-5-((10S)-10,13-(dihydroxyl)dec-1-yl) pyrrolidine] | > 100 | 10.8 | > 100 | 10.9 | > 100 | 0 | 0 | > 100 | 12 | > 100 | 0.32 | 80 |  | 13 |  | 1.4 | 
OCCC[C@@H](O)CCCCCCCCC[C@H]1N[C@H](CO)[C@@H](O)[C@@H]1O [compound 3, (2R,3R,4R,5R)-2-hydroxymethyl-3,4-dihydroxyl-5-((10R)-10,13-(dihydroxyl)dec-1-yl)pyrrolidine] | > 100 | 0 | > 100 | 10.0 | > 100 | 1.7 | 0 | > 100 | > 100 | > 100 | 2.5 | 86 |  | 2.3 | 0 | > 100 | 0
OCCC[C@@H](O)CCCCCCCCC[C@@H]1N[C@@H](CO)[C@@H](O)[C@H]1O [ent-3,10-di-epi-3] | 98 |  | > 100 | 7.3 | > 100 | 2.3 | 0 | > 100 | > 100 | > 100 | 0 | 42 |  | 31 | 9.5 | 84 | 
OCCC[C@H](O)CCCCCCCCC[C@@H]1N[C@@H](CO)[C@@H](O)[C@H]1O [ent-3-epi-3, (2S,3R,4S,5S)-2-hydroxymethyl-3,4-dihydroxyl-5-((10S)-10,13-(dihydroxyl)dec-1-yl) pyrrolidine] | 50 |  | > 100 | 4.6 | > 100 | 0 | 0 | > 100 | > 100 | > 100 | 1.3 | > 100 | 28.7 | 41 | 23 | 42 | 
